Laboratory results from patent publication US20120157439A1, “RAF INHIBITOR COMPOUNDS AND METHODS OF USE THEREOF” (GENENTECH, INC., priority 2009, published 2012).
pIC50: −log10 of the molar value. Like-named read-outs stand apart in the source and are kept apart here.

Target: T1, V600E full-length B-Raf (Homo sapiens, UniProt P15056, V600E)
T1 construct: 1 μM FSBA-MEK and 20 nM V600E full-length B-Raf; made in house; host or cells: sf9 insect cells (baculovirus)
Assay: B-Raf IC50 Assay (B-RAF V600E inhibition assay, Example A)
Format: biochemical
Description: Determining the activity of Raf in the sample is possible by a number of direct and indirect detection methods (US 2004/0082014). Activity of human recombinant B-Raf protein may be assessed in vitro by assay of the incorporation of radio labeled phosphate to recombinant MAP kinase (MEK), a known physiologic substrate of B-Raf, according to US 2004/0127496 and WO 03/022840. The activity/inhibition of V600E full-length B-Raf was estimated by measuring the incorporation of radio labeled phosphate from [γ-33P]ATP into FSBA-modified wild-type MEK (see Example A).
Activity of human recombinant B-Raf protein may be assessed in vitro by assay of the incorporation of radio labeled phosphate to recombinant MAP kinase (MEK), a known physiologic substrate of B-Raf, according to U.S. Patent Appl. Publication No. 2004/0127496 and WO 03/022840. Catalytically active human recombinant B-Raf protein is obtained by purification from sf9 insect cells infected with a human B-Raf recombinant baculovirus expression vector.
The activity/inhibition of V600E full-length B-Raf was estimated by measuring the incorporation of radio labeled phosphate from [γ-33P]ATP into FSBA-modified wild-type MEK. The […] assay mixtures contained 25 mM Na Pipes, pH 7.2, 100 mM KCl, 10 mM MgCl2, 5 mM β-glycerophosphate, 100 μM Na Vanadate, 4 μM ATP, 500 nCi [γ-33P]ATP, 1 μM FSBA-MEK and 20 nM V600E full-length B-Raf. Incubations were carried out at 22° C. in a Costar 3365 plate (Corning). Prior to the assay, the B-Raf and FSBA-MEK were preincubated together in assay buffer at 1.5× (20 μL of 30 nM and 1.5 μM, respectively) for 15 minutes, and the assay was initiated by the addition of 10 μL of […]. Following the 60-minute incubation, the assay mixtures were quenched by the addition of 100 μL of 25% TCA, the plate was mixed on a rotary shaker for 1 minute, and the product was captured on a Perkin-Elmer GF/B filter plate using a Tomtec Mach III Harvester. After sealing the bottom of the plate, 35 μL of Bio-Safe II (Research Products International) scintillation cocktail were added to each well and the plate was top-sealed and counted in a Topcount NXT (Packard).

[1] = B-Raf V600E assay of Example A: less than 100 nM, read-out: IC50
[2] = B-Raf V600E assay of Example A: less than about 1 μM, read-out: IC50
[3] = incorporation of radio labeled phosphate from [γ-33P]ATP into FSBA-modified wild-type MEK, 4 μM ATP, 20 nM V600E full-length B-Raf, 60-minute incubation, 22° C., read-out: BRAF V600E IC50

T1 sequence (P15056 whole entry V600E): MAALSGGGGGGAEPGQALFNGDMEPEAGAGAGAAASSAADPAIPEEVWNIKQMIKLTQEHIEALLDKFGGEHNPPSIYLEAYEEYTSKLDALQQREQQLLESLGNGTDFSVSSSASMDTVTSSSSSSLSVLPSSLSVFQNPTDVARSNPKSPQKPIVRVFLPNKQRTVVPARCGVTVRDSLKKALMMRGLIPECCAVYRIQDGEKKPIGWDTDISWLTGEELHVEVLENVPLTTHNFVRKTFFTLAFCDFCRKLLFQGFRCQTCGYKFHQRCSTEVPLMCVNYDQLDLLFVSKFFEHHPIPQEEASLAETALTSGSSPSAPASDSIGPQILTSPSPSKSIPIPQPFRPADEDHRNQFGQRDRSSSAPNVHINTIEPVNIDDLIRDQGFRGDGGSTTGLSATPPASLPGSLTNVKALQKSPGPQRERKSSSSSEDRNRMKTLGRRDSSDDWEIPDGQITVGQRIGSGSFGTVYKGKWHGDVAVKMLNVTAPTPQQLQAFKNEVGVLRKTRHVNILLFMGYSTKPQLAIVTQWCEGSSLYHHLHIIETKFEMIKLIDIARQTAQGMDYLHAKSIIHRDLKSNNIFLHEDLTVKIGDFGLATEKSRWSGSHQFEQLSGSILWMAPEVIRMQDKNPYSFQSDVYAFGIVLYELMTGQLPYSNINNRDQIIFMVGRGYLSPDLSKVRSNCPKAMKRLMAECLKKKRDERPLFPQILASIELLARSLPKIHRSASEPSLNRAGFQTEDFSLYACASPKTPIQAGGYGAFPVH

| Compound | pIC50 [1] | pIC50 [2] | pIC50 [3] |
| --- | --- | --- | --- |
| Nc1ncnc2c(C(=O)Nc3c(F)ccc(NS(=O)(=O)c4ccccc4)c3F)csc12 [Example 11, 4-Amino-thieno[3,2-d]pyrimidine-7-carboxylic acid (3-benzenesulfonylamino-2,6-difluoro-phenyl)-amide] | > 7.00 | > 6.00 | 9.05 |
| CCCS(=O)(=O)Nc1ccc(F)c(NC(=O)c2snc3c(N)ncnc23)c1F [Example 34, 7-Amino-isothiazolo[4,3-d]pyrimidine-3-carboxylic acid [2,6-difluoro-3-(propane-1-sulfonylamino)-phenyl]-amide] | > 7.00 | > 6.00 | 8.30 |
| Nc1ncnc2c(C(=O)Nc3c(F)ccc(NS(=O)(=O)CCCF)c3Cl)csc12 [Example 15, 4-Amino-thieno[3,2-d] pyrimidine-7-carboxylic acid [2-chloro-6-fluoro-3-(3-fluoro-propane-1-sulfonylamino)-phenyl]-amide] | > 7.00 | > 6.00 | 9.70 |
| CCCS(=O)(=O)Nc1ccc(F)c(NC(=O)c2sc(C)c3c(N)ncnc23)c1F [Example 99, 4-Amino-5-methyl-thieno[3,4-a]pyrimidine-7-carboxylic acid [2,6-difluoro-3-(propane-1-sulfonylamino)-phenyl]-amide] | > 7.00 | > 6.00 | 8.52 |
| CCS(=O)(=O)Nc1ccc(F)c(NC(=O)c2csc3c(N)ncnc23)c1Cl [Example 4, 4-Amino-thieno[3,2-d] pyrimidine-7-carboxylic acid (2-chloro-3-ethane-sulfonylamino-6-fluoro-phenyl)-amide] | > 7.00 | > 6.00 | 8.37 |
| Cc1ncnc2c(C(=O)Nc3c(Cl)ccc(NS(=O)(=O)CCCF)c3Cl)csc12 [Example 39, 4-Methyl-thieno[3,2-d]pyrimidine-7-carboxylic acid [2,6-dichloro-3-(3-fluoro-propane-1-sulfonylamino)-phenyl]-amide] | > 7.00 | > 6.00 | 8.95 |
| CCCS(=O)(=O)Nc1ccc(F)c(NC(=O)c2scc3c(N)ncnc23)c1F [Example 100, 4-Amino-N-(2,6-difluoro-3-(propylsulfonamido)phenyl)thieno[3,4-d]pyrimidine-7-carboxamide] | > 7.00 | > 6.00 | 7.53 |
| CCCS(=O)(=O)Nc1ccc(F)c(NC(=O)c2c[nH]c3c(NC4CC4)ncnc23)c1F [Example 104, 4-Cyclopropylamino-5H-pyrrolo[3,2-d]pyrimidine-7-carboxylic acid [2,6-difluoro-3-(propane-1-sulfonylamino)-phenyl]-amide] | > 7.00 | > 6.00 | 7.32 |
| CCCS(=O)(=O)Nc1ccc(F)c(NC(=O)c2csc3c(Nc4ccccn4)ncnc23)c1F [Example 62, 4-(Pyridin-2-ylamino)-thieno[3,2-d] pyrimidine-7-carboxylic acid [2,6-difluoro-3-(propane-1-sulfonylamino)-phenyl]-amide] | > 7.00 | > 6.00 | 7.57 |
| CCCS(=O)(=O)Nc1cc(F)c(F)c(NC(=O)c2csc3c(NC4CC4)ncnc23)c1F [Example 86, 4-Cyclopropyl-amino-thieno [3,2-d] pyrimidine-7-carboxylic acid [2,3,6-trifluoro-5-(propane-1-sulfonyl-amino)-phenyl]-amide] | > 7.00 | > 6.00 | 8.92 |
| CCCS(=O)(=O)Nc1ccc(Cl)c(NC(=O)c2csc3c(NC4COC4)ncnc23)c1Cl [Example 68, 4-(Oxetan-3-ylamino)-thieno[3,2-d] pyrimidine-7-carboxylic acid [2,6-dichloro-3-(propane-1-sulfonyl-amino)-phenyl]-amide] | > 7.00 | > 6.00 | 8.74 |
| CCCNc1ncnc2c(C(=O)Nc3c(F)ccc(NS(=O)(=O)CCC)c3F)csc12 [Example 49, 4-Propylamino-thieno[3,2-d] pyrimidine-7-carboxylic acid [2,6-difluoro-3-(propane-1-sulfonylamino)-phenyl]-amide] | > 7.00 | > 6.00 | 7.96 |
| Nc1ncnc2c(C(=O)Nc3c(F)ccc(NS(=O)(=O)CC4CC4)c3Cl)csc12 [Example 16, 4-Amino-thieno[3,2-d] pyrimidine-7-carboxylic acid (2-chloro-3-cycloprop-ylmethanesulfonyl-amino-6-fluoro-phenyl)-amide] | > 7.00 | > 6.00 | 8.72 |
| CCCS(=O)(=O)Nc1ccc(Cl)c(NC(=O)c2csc3c(NC4CCCCC4)ncnc23)c1Cl [Example 81, 4-Cyclohexyl-amino-thieno [3,2-d] pyrimidine-7-carboxylic acid [2,6-dichloro-3-(propane-1-sulfonyl-amino)-phenyl]-amide] | – | > 6.00 | 6.96 |

Now from value to compound:

| pIC50 [1] | pIC50 [2] | pIC50 [3] | Compound |
| --- | --- | --- | --- |
| > 7.00 | > 6.00 | 9.22 | CC(C)CS(=O)(=O)Nc1ccc(F)c(NC(=O)c2csc3c(N)ncnc23)c1Cl [Example 8, 4-Amino-thieno[3,2-d]pyrimidine-7-carboxylic acid[2-chloro-6-fluoro-3-(2-methyl-propane-1-sulfonylamino)-phenyl]-amide] |
| > 7.00 | > 6.00 | 7.84 | CCCS(=O)(=O)Nc1ccc(Cl)c(NC(=O)c2csc3c(NC4CCOC4)ncnc23)c1Cl (centres unmarked) [Example 71, 4-(Tetrahydro-furan-3-ylamino)-thieno[3,2-d] pyrimidine-7-carboxylic acid [2,6-dichloro-3-(propane-1-sulfonyl-amino)phenyl]-amid] |
| > 7.00 | > 6.00 | 9.00 | CCCS(=O)(=O)Nc1ccc(Cl)c(NC(=O)c2csc3c(N)ncnc23)c1F [Example 7, 4-Amino-thieno[3,2-d] pyrimidine-7-carboxylic acid [6-chloro-2-fluoro-3-(propane-1-sulfonyl-amino)-phenyl]-amide] |
| > 7.00 | > 6.00 | 9.60 | O=C(Nc1c(Cl)ccc(NS(=O)(=O)CCCF)c1F)c1csc2c(NC3CC3)ncnc12 [Example 84, 4-Cyclopropyl-amino-thieno [3,2-d] pyrimidine-7-carboxylic acid [6-chloro-2-fluoro-3-(3-fluoropropane-1-sulfonyl-amino)-phenyl]-amide] |
| > 7.00 | > 6.00 | 8.29 | CCCS(=O)(=O)Nc1cc(F)c(F)c(NC(=O)c2csc3c(NCC)ncnc23)c1F [Example 85, 4-Ethylamino-thieno[3,2-d] pyrimidine-7-carboxylic acid [2,3,6-trifluoro-5-(propane-1-sulfonyl-amino)-phenyl]-amide] |
| > 7.00 | > 6.00 | 8.47 | CCCS(=O)(=O)Nc1ccc(Cl)c(NC(=O)c2csc3c(NC(C)C)ncnc23)c1Cl [Example 70, 4-Isopropyl-amino-thieno [3,2-d] pyrimidine-7-carboxylic acid [2 6-dichloro-3-(propane-1-sulfonyl-amino)-phenyl]-amide] |
| > 7.00 | > 6.00 | 7.93 | CCCS(=O)(=O)Nc1ccc(Cl)c(NC(=O)c2csc3c(NCC(F)(F)F)ncnc23)c1Cl [Example 78, 4-(2,2,2-Trifluoro-ethylamino)-thieno[3,2-d] pyrimidine-7-carboxylic acid [2,6-dichloro-3-(propane-1-sulfonyl-amino)-phenyl]-amide] |
